Results on one compound are retold here after PMC5516028, “Molecular tools for GABAA receptors: High affinity ligands for β1-containing subtypes” (Scientific Reports, 2017).

Assay type in all cases: cell-based
The target of one assay is T1, α1β1 GABAA receptors (Rattus norvegicus, UniProt P15431+P62813).
T1 construct: expressed in transfected cells; host or cells: Xenopus laevis oocytes, mRNA injected
Briefly: Two electrode voltage clamp in Xenopus laevis oocytes, α1β1. A digest of the protocol: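 Defolliculated stage 5–6 oocytes received 4.5 ng of total rat subunit mRNA. The α:β ratio was 1:1 and the α:β:γ2 ratio was 1:1:5. Cells were held at 18 °C before recording, 2–3 days for binary and 3–4 days for ternary receptors.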
Background: In two-electrode clamp one electrode senses voltage and the other passes current.

The target in another assay is T2, α1β3N41R GABAA receptors (Rattus norvegicus, UniProt P62813+P63079, N66R).
T2 construct: expressed in transfected cells; host or cells: Xenopus laevis oocytes, mRNA injected
T2 sequence (P62813 28-455): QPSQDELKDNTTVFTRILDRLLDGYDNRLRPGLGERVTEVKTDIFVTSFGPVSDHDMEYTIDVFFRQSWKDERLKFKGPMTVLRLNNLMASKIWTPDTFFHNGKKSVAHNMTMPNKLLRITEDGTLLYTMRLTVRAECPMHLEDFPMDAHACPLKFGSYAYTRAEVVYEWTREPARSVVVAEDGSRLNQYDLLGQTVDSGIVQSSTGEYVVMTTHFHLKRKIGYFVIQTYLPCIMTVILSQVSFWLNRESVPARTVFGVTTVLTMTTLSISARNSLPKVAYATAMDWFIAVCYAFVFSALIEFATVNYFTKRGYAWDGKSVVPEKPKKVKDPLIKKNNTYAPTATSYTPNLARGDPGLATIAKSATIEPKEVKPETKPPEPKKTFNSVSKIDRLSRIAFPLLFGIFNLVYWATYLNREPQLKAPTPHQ
T2 sequence (P63079 26-473 N66R): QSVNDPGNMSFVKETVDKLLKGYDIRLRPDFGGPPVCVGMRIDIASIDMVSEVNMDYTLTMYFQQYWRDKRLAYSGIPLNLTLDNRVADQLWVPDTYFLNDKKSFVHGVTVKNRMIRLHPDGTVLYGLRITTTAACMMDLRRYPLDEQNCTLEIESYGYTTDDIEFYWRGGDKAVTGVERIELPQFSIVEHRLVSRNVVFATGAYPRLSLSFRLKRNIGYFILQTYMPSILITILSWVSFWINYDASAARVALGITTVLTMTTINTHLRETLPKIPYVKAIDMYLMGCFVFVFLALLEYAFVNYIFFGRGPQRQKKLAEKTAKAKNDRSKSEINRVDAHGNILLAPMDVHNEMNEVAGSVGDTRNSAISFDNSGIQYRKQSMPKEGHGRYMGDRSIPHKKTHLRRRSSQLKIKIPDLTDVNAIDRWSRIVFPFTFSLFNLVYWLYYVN
The assay can be described thus: Two electrode voltage clamp in Xenopus laevis oocytes, mutant α1β3N41R. To be noted: co-applied with GABA EC3-5, read-out: EC50 values for the mutated receptors. The source says:
(§1) cDNA’s of rat GABAA receptor subunits α1, α4, β1, β2, β3 and γ2S were cloned as described. cDNAs of the rat subunits α2, α3 and α5 were gifts from P. Malherbe, that of α6 and γ1 were gifts of P. Seeburg and that of δ was a gift of C. Czajkowski. The mutants were constructed using the Q5 Site-Directed Mutagenesis Kit (New England Biolabs) following manufacturer’s instruction. We used the wild-type rat β3-pCI vector as template and the primers […] and […] resulting in a substitution of amino acid N41 (AAC) to R (AGG). We used the wild-type rat β1-pCI vector as template and the primers […] and […] resulting in a substitution of amino acid R41 (CGG) to N (AAC). The mutated subunits were confirmed by sequencing.
(§2) In vitro transcription of mRNA was based on the cDNA expression vectors encoding for rat GABAA receptor subunits α1–6, β1-3, γ1,2, δ and the two β mutants (β1R41N and β3N41R)[40]. After linearizing the cDNA vectors with appropriate restriction endonucleases, the cDNA was purified and concentrated with the DNA Clean and Contentrator ^TM Kit (Zymoresearch, Catalog No. D4005). Capped transcripts of the purified cDNA were produced using the mMESSAGE mMACHINE® T7 transcription kit (Ambion, TX, USA) and polyadenylated using the Ambion PolyA tailing kit (Ambion). After transcription and polyadenylation the RNA was purified with the MEGAclear ^TM Kit (Ambion, Catalog No. AM1908). The final RNA concentration was measured on NanoDrop® ND-1000 and finally diluted and stored in diethylpyrocarbonate-treated water at −80 °C. For the microinjection, the RNA of αβ receptor combinations was mixed at 1:1 ratio (which leads to αβ receptors that consist of predominantly 3 beta and 2 alpha subunits[27]), for αkβlγm (k = 1–3, l = 1, 3, m = 1, 2) receptors at 1:1:5 ratio, for αkβ3γ2 (k = 4–6) and αkβlδ (k = 1, 4 and 6, l = 1, 3) receptor combinations at 3:1:5 ratio.
(§3) Mature female Xenopus laevis (Nasco, WI) were anesthetized in a bath of ice-cold 0.17% Tricain (Ethyl-m-aminobenzoate, Sigma, MO) before decapitation in full accordance with all rules of the Austrian animal protection law (see http://www.ris.bka.gv.at/Dokumente/BgblAuth/BGBLA_2012_I_114/BGBLA_2012_I_114.pdf) and the Austrian animal experiment by-laws (see https://www.ris.bka.gv.at/Dokumente/BgblAuth/BGBLA_2012_II_522/BGBLA_2012_II_522.pdf) which implement the European Directive 2010/63/EU (see http://eur-lex.europa.eu/LexUriServ/LexUriServ.do?uri=OJ:L:2010:276:0033:0079:en:PDF) into the Austrian law (all information accessed on July 27, 2016). The frog’s ovaries were transferred to ND96 medium (96 mM NaCl, 2 mM KCl, 1 mM MgCl2, 5 mM HEPES; pH 7.5). Stage 5–6 oocytes with the follicle cell layer around them were roughly dissected with forceps into packages of 10–15 cells and washed in Ca^2+-free ND96 medium. Cells were then digested with collagenase (type IA, Sigma, NO, 1 mg/mL ND96) at 18 °C shaking at 30 rpm for 30–60 minutes and gently defolliculated with the aid of a glass pipette with appropriate tip diameter and a platinum loop. Defolliculated cells were stored at 18 °C for at least 6 hours in ND96 solution containing penicillin G (10000 IU/100 mL) and streptomycin (10 mg/100 mL) in order to preselect and exclude damaged cells from further treatment. Healthy defolliculated oocytes were injected with an aqueous solution of mRNA. A total of 4.5 ng of mRNA per oocyte was injected with a Nanoject II (Drummond). After injection of mRNA, oocytes were incubated at 18 °C (ND96 + antibiotic) for 2–3 days for αβ receptors and for 3–4 days for αβγ or αβδ receptors before recording. When cells were measured at later time points, oocytes were stored at +4 °C instead of 18 °C.
(§4) For electrophysiological recordings, oocytes were placed on a nylon-grid in a bath of Ca^2+-containing NDE solution medium [96 mM NaCl, 5 mM HEPES-NaOH (pH 7.5), 2 mM KCl, 1 mM MgCl2, 1.8 mM CaCl2].

The target in the next assay is T3, α1β3 GABAA receptors (Rattus norvegicus, UniProt P62813+P63079).
T3 construct: expressed in transfected cells; host or cells: Xenopus laevis oocytes, mRNA injected
T3 sequence (P62813 28-455): as the sequence (P62813 28-455) above
T3 sequence (P63079 26-473): as the sequence (P63079 26-473 N66R) above, with R41N counted along it
Briefly: Two electrode voltage clamp in Xenopus laevis oocytes, α1β3.
From the text: as §1, §2, §3, §4

The target of a further assay is T4, α1β1R41N GABAA receptors (Rattus norvegicus, UniProt P15431+P62813, R66N).
T4 construct: expressed in transfected cells; host or cells: Xenopus laevis oocytes, mRNA injected
T4 sequence (P62813 28-455): as the sequence (P62813 28-455) above
T4 sequence (P15431 26-474 R66N): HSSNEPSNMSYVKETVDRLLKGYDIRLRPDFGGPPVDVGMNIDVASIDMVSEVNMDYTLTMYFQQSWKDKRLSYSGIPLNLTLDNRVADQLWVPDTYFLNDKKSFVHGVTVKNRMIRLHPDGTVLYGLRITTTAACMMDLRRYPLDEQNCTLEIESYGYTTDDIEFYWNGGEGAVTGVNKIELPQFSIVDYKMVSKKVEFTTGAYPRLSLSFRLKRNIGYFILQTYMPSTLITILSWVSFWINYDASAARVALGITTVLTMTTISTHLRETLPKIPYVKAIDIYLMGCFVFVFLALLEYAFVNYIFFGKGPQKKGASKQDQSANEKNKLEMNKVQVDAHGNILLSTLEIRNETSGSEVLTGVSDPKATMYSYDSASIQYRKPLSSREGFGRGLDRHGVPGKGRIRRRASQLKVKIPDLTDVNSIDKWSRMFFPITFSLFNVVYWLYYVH
Briefly: Two electrode voltage clamp in Xenopus laevis oocytes, mutant α1β1R41N.
From the text: as §1, §2, §3, §4

The next assay concerns the target T5, α1β2 GABAA receptors (Rattus norvegicus, UniProt P62813+P63138).
T5 construct: expressed in transfected cells; host or cells: Xenopus laevis oocytes, mRNA injected
The assay can be described thus: Two electrode voltage clamp in Xenopus laevis oocytes, α1β2.
From the text: as §1, §2, §3, §4

T5 sequence (P62813 28-455): as the sequence (P62813 28-455) above
T5 sequence (P63138 25-474 limits assumed): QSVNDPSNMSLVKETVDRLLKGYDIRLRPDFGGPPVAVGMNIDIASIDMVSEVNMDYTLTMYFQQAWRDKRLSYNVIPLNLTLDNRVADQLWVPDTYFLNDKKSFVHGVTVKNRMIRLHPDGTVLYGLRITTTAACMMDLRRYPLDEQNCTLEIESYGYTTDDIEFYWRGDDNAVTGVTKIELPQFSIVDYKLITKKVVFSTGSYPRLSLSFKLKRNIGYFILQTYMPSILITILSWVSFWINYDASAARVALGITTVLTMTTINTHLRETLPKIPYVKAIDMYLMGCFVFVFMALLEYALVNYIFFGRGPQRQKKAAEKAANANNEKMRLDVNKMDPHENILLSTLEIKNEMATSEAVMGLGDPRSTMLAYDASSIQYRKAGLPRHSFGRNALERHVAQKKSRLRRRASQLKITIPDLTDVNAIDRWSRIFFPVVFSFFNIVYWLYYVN
T1 sequence (P62813 28-455): as the sequence (P62813 28-455) above
T1 sequence (P15431 26-474): as the sequence (P15431 26-474 R66N) above, with N41R counted along it

For the compound `COc1ccc(-n2nc3c4cc(Cl)ccc4[nH]cc-3c2=O)cc1` [Compound 1, 8-Chloro-2-(4-methoxyphenyl)-2H-pyrazolo[4,3-c]quinolin-3(5H)-one], the activity at 0.001 µM on α1β1 GABAA receptors (read-out: efficacy, % of control current (GABA EC3-5 = 100%), α1β1, 1 nM) is 102 ± 1.7%; on α1β2 GABAA receptors (read-out: efficacy, % of control current (GABA EC3-5 = 100%), α1β2, 1 nM) it was 100%. Besides, the activity at 0.003 µM at α1β1 GABAA receptors (read-out: efficacy, % of control current (GABA EC3-5 = 100%), α1β1, 3 nM) was determined as 100.5 ± 0.5%. Also, the activity at 0.03 µM at α1β1 GABAA receptors (read-out: efficacy, % of control current (GABA EC3-5 = 100%), α1β1, 30 nM) was 138 ± 13.3%. The activity at 0.3 µM at α1β1 GABAA receptors (read-out: efficacy, % of control current (GABA EC3-5 = 100%), α1β1, 300 nM) worked out at 292 ± 24.5%. The activity at 30 µM at α1β1 GABAA receptors (read-out: efficacy, % of control current (GABA EC3-5 = 100%), α1β1, 30 µM) was 174 ± 34.2%. The “Hill slope (nH)” value on α1β1 GABAA receptors (α1β1) turned out to be 1.3±0.4; at α1β3 GABAA receptors (α1β3) it was 1.5±0.5; at α1β2 GABAA receptors (α1β2) it was 1.1±0.3. Besides, the EC50 (as a rule, the concentration giving half of the maximal effect) amounted to 130 nM at α1β1 GABAA receptors (α1β1 (α1+/β1− interface), read-out: EC50); 980 nM at α1β3N41R GABAA receptors; 1840 nM on α1β3 GABAA receptors (α1β3, co-applied with GABA EC3-5, read-out: EC50); 800 nM at α1β1R41N GABAA receptors (co-applied with GABA EC3-5); 1150 nM on α1β2 GABAA receptors. Further, the activity at 0.01 µM at α1β3 GABAA receptors (read-out: efficacy, % of control current (GABA EC3-5 = 100%), α1β3, 10 nM) worked out at 106 ± 1.6%. Also, at α1β3 GABAA receptors (read-out: efficacy, % of control current (GABA EC3-5 = 100%), α1β3, 3 µM), the activity at 3 µM came out at 839 ± 105%. For the same compound, at α1β1R41N GABAA receptors (100nM, read-out: % of control current at EC3-5), the current as % of control at 0.1 µM was 80 ± 10%. At α1β1R41N GABAA receptors (300nM, read-out: % of control current at EC3-5), the current as % of control at 0.3 µM worked out at 100 ± 10%. For the same compound, at α1β1R41N GABAA receptors (1μM, read-out: % of control current at EC3-5), the current as % of control at 1 µM was determined as 140 ± 16%. The current as % of control at 3 µM on α1β1R41N GABAA receptors (3µM, read-out: % of control current at EC3-5) was determined as 195 ± 20%. Moreover, the current as % of control at 10 µM on α1β1R41N GABAA receptors (10μM, read-out: % of control current at EC3-5) was found to be 205 ± 20%. In addition, on α1β1R41N GABAA receptors (30μM, read-out: % of control current at EC3-5), the current as % of control at 30 µM turned out to be 150 ± 10%. Further, the activity at 10 µM on α1β2 GABAA receptors (read-out: efficacy, % of control current (GABA EC3-5 = 100%), α1β2, 10 µM) was found to be 644 ± 57%.
